For this experiment, the target named is GCN2 (Homo sapiens, UniProt Q9P2K8). As to the kind of experiment: GCN2 enzymatic endpoint assay: phosphorylation of GFP-eIF2α measured by TR-FRET (Lanthascreen). Type of experiment: biochemical. The following applies: tested as described in Example 77; compound and/or hydrochloride, dihydrochloride or trifluoroacetic acid salt; read-out: IC 50 Activity. Summed up:
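Reaction started with 2 μM ATP and 80 nM GFP-labelled eIF2α substrate at room temperature, stopped with EDTA after 90 minutes. Phospho-eIF2α detected by terbium-labelled antibody TR-FRET; activity taken as 520 nm (fluorescein) to 495 nm (terbium) emission ratio.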
On the technique in general: Time-resolved FRET reads energy transfer from a long-lived donor to a nearby acceptor.

Chain of GCN2 (Q9P2K8 whole entry): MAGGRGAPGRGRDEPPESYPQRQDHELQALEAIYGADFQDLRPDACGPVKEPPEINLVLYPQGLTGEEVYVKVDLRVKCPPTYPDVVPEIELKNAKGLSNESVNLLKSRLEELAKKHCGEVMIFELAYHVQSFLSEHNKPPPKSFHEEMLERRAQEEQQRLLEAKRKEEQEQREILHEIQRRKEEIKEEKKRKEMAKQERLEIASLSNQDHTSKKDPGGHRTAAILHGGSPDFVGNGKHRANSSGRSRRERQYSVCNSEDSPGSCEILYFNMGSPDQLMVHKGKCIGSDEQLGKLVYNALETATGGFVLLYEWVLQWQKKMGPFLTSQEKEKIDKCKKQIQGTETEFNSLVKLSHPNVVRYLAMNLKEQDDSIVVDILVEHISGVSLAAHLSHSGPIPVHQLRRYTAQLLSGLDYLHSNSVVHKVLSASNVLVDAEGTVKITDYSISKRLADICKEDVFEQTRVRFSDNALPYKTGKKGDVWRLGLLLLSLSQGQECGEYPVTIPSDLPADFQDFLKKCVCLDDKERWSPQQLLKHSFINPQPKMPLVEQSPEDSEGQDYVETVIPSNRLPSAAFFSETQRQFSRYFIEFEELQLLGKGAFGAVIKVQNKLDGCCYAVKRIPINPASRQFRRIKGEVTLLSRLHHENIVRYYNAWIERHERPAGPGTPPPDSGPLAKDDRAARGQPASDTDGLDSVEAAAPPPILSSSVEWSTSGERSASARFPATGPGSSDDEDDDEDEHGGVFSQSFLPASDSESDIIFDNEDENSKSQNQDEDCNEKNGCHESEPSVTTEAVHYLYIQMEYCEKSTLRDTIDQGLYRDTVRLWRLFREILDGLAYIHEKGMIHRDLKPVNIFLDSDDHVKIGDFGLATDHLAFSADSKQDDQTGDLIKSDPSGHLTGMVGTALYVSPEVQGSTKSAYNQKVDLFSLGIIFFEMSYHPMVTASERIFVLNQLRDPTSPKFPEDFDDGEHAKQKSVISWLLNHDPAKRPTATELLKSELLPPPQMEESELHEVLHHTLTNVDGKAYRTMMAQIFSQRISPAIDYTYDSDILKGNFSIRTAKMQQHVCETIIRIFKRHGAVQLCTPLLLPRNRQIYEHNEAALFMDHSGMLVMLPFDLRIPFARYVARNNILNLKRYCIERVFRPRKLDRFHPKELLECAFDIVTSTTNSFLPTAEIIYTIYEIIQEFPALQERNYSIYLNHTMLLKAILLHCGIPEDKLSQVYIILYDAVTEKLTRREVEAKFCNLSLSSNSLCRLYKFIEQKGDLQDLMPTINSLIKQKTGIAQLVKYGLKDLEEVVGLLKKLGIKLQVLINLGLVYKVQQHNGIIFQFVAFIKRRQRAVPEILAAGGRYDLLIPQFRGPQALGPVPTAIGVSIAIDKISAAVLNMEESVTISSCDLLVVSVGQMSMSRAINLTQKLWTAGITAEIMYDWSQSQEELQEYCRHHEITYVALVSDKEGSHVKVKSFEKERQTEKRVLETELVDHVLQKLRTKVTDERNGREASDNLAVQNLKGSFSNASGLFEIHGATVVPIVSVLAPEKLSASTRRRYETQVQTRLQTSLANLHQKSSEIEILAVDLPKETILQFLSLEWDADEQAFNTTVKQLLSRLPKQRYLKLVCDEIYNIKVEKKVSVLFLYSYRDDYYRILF

On to `CNC(=O)[C@]1(C)CC[C@@H](Nc2ncc3c(Br)nn(-c4ccc(-c5nnc(C)s5)c(CC(C#N)CO)c4)c3n2)C1` (stereo partly drawn) [(1R,3R)-3-[[3-bromo-1-[3-(2-cyano-3-hydroxy-propyl)-4-(5-methyl-1,3,4-thiadiazol-2-yl)phenyl]pyrazolo[3,4-d]pyrimidin-6-yl]amino]-N,1-dimethyl-cyclopentanecarboxamide], for which the IC50 is less than 25 nM.

For `CNC(=O)[C@]1(CCOC)CC[C@@H](Nc2ncc3c(Br)nn(-c4ccc(-c5nnc(C)s5)c(CCC#N)c4)c3n2)C1` [(1R,3R)-3-[[3-bromo-1-[3-(2-cyano-ethyl)-4-(5-methyl-1,3,4-thiadiazol-2-yl)phenyl]pyrazolo[3,4-d]pyrimidin-6-yl]amino]-1-(2-methoxyethyl)-N-methyl-cyclopentanecarboxamide; 2,2,2-trifluoroacetic acid], the IC50 lay within 25 to 200 nM. For `CNC(=O)[C@]1(CO)CC[C@@H](Nc2ncc3c(Br)nn(-c4ccc(-c5nnc(C)s5)c(CCC#N)c4)c3n2)C1` [(1R,3R)-3-[[3-bromo-1-[3-(2-cyanoethyl)-4-(5-methyl-1,3,4-thiadiazol-2-yl)phenyl]pyrazolo[3,4-d]pyrimidin-6-yl]amino]-1-(hydroxymethyl)-N-methyl-cyclopentane-carboxamide] the value was 25 to 200 nM; for `COCCNC(=O)[C@]1(C(C)C)CC[C@@H](Nc2ncc3c(Br)nn(-c4ccc(-c5nnc(C)s5)c(CCC#N)c4)c3n2)C1` [(1R,3R)-3-[[3-bromo-1-[3-(2-cyanoethyl)-4-(5-methyl-1,3,4-thiadiazol-2-yl)phenyl]pyrazolo[3,4-d]pyrimidin-6-yl]amino]-1-isopropyl-N-(2-methoxyethyl)cyclopentane-carboxamide], 25 to 200 nM; for `CNC(=O)[C@]1(C(C)C)CC[C@@H](Nc2ncc3c(Br)nn(-c4ccc(-c5nnc(C)s5)c(CCC#N)c4)c3n2)C1` [(1R,3R)-3-[[3-bromo-1-[3-(2-cyanoethyl)-4-(5-methyl-1,3,4-thiadiazol-2-yl)phenyl]pyrazolo[3,4-d]pyrimidin-6-yl]amino]-1-isopropyl-N-methyl-cyclopentane-carboxamide], 25 to 200 nM.

In the case of `Cc1nnc(-c2ccc(-n3nc(Br)c4cnc(N[C@@H]5CC[C@@](C)(C(=O)NCC(F)F)C5)nc43)cc2CCC#N)s1` [(1R,3R)-3-[[3-bromo-1-[3-(2-cyanoethyl)-4-(5-methyl-1,3,4-thiadiazol-2-yl)phenyl]pyrazolo[3,4-d]pyrimidin-6-yl]amino]-N-(2,2-difluoroethyl)-1-methyl-cyclopentanecarboxamide], the IC50 fell in the range of 25 to 200 nM.

Consider `Cc1nnc(-c2ccc(-n3nc(Br)c4cnc(N[C@@H]5CC[C@@](C)(C(=O)NC6CC6)C5)nc43)cc2CCC#N)s1` [(1R,3R)-3-[[3-bromo-1-[3-(2-cyanoethyl)-4-(5-methyl-1,3,4-thiadiazol-2-yl)phenyl]pyrazolo[3,4-d]pyrimidin-6-yl]amino]-N-cyclopropyl-1-methyl-cyclopentane-carboxamide], for which the IC50 lay within 25 to 200 nM.

For the compound `CNC(=O)[C@]1(C)CC[C@@H](Nc2ncc3c(Br)nn(-c4ccc(-c5ncco5)c(OCCO)c4)c3n2)C1` [(1R,3R)-3-[[3-bromo-1-[3-(2-hydroxy-ethoxy)-4-oxazol-2-yl-phenyl]pyrazolo [3,4-d]pyrimidin-6-yl]amino]-N,1-dimethyl-cyclopentanecarboxamide], the IC50 was less than 25 nM. On to `CNC(=O)[C@]1(C)CC[C@@H](Nc2ncc3c(Br)nn(-c4ccc(-c5nnc(C)o5)c(CCO)c4)c3n2)C1` [(1R,3R)-3-[[3-bromo-1-[3-(2-hydroxyethyl)-4-(5-methyl-1,3,4-oxadiazol-2-yl)phenyl]pyrazolo[3,4-d]pyrimidin-6-yl]amino]-N,1-dimethyl-cyclopentanecarboxamide], for which the IC50 fell in the range of 25 to 200 nM.

As for `CNC(=O)[C@]1(C)CC[C@@H](Nc2ncc3c(Br)nn(-c4ccc(-c5nnc(C)s5)c(CCO)c4)c3n2)C1` [(1R,3R)-3-[[3-bromo-1-[3-(2-hydroxyethyl)-4-(5-methyl-1,3,4-thiadiazol-2-yl)phenyl]pyrazolo[3,4-d]pyrimidin-6-yl]amino]-N,1-dimethyl-cyclopentanecarboxamide], the IC50 lay within 25 to 200 nM.

Source of the values: patent US11046699B2, “Pyrazolo-pyrimidin-amino-cycloalkyl compounds and their therapeutic uses” (RAPT THERAPEUTICS, INC., priority 2018, dated 2021).
